# Source: US20110213038A1, “CONTROL OF BED BUGS” (priority 2008, published 2011)
# How the values were obtained:
# [1] = test system: adult bed bugs Cimex lectularius; assay: Vapor exposure of concealed bed bugs (folded mattress ticking) in sealed jar, 72 hour mortality; format: in vivo; details: one drop (about 25-30 mg) on filter paper in sealed 16 oz. glass jar
# Description: This test was conducted using concealed bed bugs. One drop (about 25-30 mg) of a naturally occurring aromatic test compound was applied to a filter paper and placed with a 16 oz. glass jar (3½ inches diameter×3⅞ inches high) containing ten adult bed bugs Cimex lectularius of both sexes. A piece of folded mattress ticking was also placed in the jar to allow the bed bugs a place to hide. The jar was then sealed with a plastic lid. Five replicates of ten bed bugs were exposed to each of the test compounds. Mortality was assessed at 72 hours. A control jar with no test compound was also included in the testing. The mortality results were as follows.
# [2] = test system: adult bed bugs Cimex lectularius; assay: Vapor exposure of unconcealed bed bugs in sealed jar, 24 hour mortality; format: in vivo; details: one drop (about 25-30 mg) on filter paper in sealed 16 oz. glass jar
# Description: This test was undertaken employing unconcealed bed bugs. One drop (about 25-30 mg) of a naturally occurring aromatic test compound was applied to a filter paper and placed with a 16 oz. glass jar (3½ inches diameter×3⅞ inches high) containing ten adult bed bugs Cimex lectularius of both sexes. The jar was then sealed with a plastic lid. Five replicates of ten bed bugs were exposed to each of the test compounds. The test formulations were assessed for 24 hour mortality. A control jar with no test compound was also included in the testing.
# The test was repeated with several other test compounds in the same manner: […]
# [3] = repeated test with other compounds
Compound,72 hr Mean Mortality % [1] [%],24 hr Mean Mortality % ([2]; first test) [%],"24 hr Mean Mortality % [2, 3] [%]"
C=C[C@](C)(O)CCC=C(C)C [l-Linalool],68,100.0,
l-Carvone,46.7,73.5,
C=C(C)[C@H]1CC=C(C)C(=O)C1 [d-Carvone],,,47.8
CC(O)c1ccccc1 (stereo not shown) [Styralyl alcohol],91.8,,89.8
CC(C)[C@@H]1CC[C@@H](C)C(=O)C1 [Tetrahydrocarvone],16.7,,58.1
C=C[C@@](C)(O)CCC=C(C)C [d-Linalool],,,92.0
